Experimental data taken from patent publication US20250163054A1, “SUBSTITUTED BICYCLIC HETEROARYL COMPOUNDS USEFUL AS INHIBITORS OF TLR9” (Bristol-Myers Squibb Company, priority 2022, published 2025).

How the values were obtained:
Assay type in all cases: cell-based
human TLR9 = target: T1, human TLR9 (Homo sapiens, UniProt Q9NR96); test: TLR7/8/9 Inhibition Reporter Assays (TLR9); details: HEK-Blue cells overexpressing human TLR9, SEAP reporter, stimulated with TLR9 ligand ODN2006
T1 construct: host or cells: HEK-Blue cells (HEK293-derived reporter line)
T1 sequence (Q9NR96 26-1032): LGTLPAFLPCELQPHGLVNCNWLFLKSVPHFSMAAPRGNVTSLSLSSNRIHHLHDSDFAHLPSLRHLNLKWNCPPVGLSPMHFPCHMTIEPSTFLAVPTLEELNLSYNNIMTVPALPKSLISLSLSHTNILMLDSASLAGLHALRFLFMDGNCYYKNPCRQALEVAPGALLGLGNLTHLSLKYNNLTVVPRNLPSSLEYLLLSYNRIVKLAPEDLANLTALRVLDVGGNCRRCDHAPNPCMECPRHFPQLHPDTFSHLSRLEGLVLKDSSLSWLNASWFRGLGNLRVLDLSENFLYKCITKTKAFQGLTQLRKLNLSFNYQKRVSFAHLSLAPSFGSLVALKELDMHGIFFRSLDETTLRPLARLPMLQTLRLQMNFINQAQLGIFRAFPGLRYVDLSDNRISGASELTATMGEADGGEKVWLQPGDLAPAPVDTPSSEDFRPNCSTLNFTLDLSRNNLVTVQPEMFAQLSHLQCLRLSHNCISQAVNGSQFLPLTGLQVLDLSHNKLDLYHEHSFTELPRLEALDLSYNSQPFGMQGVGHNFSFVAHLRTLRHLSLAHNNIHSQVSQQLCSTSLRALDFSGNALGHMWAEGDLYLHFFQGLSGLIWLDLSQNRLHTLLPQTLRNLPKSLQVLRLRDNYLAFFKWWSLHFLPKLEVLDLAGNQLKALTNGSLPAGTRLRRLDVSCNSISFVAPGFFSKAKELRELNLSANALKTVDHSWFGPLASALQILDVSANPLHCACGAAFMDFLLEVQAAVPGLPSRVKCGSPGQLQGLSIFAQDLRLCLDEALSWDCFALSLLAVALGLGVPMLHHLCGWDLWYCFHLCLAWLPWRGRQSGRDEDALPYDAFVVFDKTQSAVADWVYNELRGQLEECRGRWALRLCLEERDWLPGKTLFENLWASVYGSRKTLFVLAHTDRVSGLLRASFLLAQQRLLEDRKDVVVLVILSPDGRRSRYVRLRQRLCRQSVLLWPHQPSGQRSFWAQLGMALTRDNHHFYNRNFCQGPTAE
Method: (§1) HEK-Blue™-cells (Invivogen) overexpressing human TLR7, TLR8 or TLR9 receptors were used for screening inhibitors of these receptors using an inducible SEAP (secreted embryonic alkaline phosphatase) reporter gene under the control of the IFN-β minimal promoter fused to five NF-κB and AP-1-binding sites. Cells are seeded into Greiner 384 well plates (15000 cells per well) that are predispensed (by ECHO) with testing compounds in DMSO to yield a final dose response concentration range of 0.85 nM-[…]. After a 60 minute compound pre-treatment in 37° C. incubator, the cells are then stimulated with a TLR7 ligand (gardiquimod at a final concentration of […]), TLR8 ligand (R848 at a final concentration of […]) or TLR9 ligand (ODN2006 at a final concentration of 200 nM) to activate NF-κB and AP-1 which induce the production of SEAP. After a 22 hour incubation at 37° C., 5% CO2, SEAP levels are determined with the addition of HEK-Blue™ Detection reagent (Invivogen), a cell culture medium that allows for detection of SEAP, according to manufacturer's specifications. The percent inhibition is determined as the % reduction in the HEK-Blue signal present in wells treated with agonist plus DMSO alone compared to wells treated with a known inhibitor.

human TLR7 = target: T2, human TLR7 (Homo sapiens, UniProt Q9NYK1); test: TLR7/8/9 Inhibition Reporter Assays (TLR7); details: HEK-Blue cells overexpressing human TLR7, SEAP reporter, stimulated with TLR7 ligand gardiquimod
T2 construct: host or cells: HEK-Blue cells (HEK293-derived reporter line)
T2 sequence (Q9NYK1 27-1049): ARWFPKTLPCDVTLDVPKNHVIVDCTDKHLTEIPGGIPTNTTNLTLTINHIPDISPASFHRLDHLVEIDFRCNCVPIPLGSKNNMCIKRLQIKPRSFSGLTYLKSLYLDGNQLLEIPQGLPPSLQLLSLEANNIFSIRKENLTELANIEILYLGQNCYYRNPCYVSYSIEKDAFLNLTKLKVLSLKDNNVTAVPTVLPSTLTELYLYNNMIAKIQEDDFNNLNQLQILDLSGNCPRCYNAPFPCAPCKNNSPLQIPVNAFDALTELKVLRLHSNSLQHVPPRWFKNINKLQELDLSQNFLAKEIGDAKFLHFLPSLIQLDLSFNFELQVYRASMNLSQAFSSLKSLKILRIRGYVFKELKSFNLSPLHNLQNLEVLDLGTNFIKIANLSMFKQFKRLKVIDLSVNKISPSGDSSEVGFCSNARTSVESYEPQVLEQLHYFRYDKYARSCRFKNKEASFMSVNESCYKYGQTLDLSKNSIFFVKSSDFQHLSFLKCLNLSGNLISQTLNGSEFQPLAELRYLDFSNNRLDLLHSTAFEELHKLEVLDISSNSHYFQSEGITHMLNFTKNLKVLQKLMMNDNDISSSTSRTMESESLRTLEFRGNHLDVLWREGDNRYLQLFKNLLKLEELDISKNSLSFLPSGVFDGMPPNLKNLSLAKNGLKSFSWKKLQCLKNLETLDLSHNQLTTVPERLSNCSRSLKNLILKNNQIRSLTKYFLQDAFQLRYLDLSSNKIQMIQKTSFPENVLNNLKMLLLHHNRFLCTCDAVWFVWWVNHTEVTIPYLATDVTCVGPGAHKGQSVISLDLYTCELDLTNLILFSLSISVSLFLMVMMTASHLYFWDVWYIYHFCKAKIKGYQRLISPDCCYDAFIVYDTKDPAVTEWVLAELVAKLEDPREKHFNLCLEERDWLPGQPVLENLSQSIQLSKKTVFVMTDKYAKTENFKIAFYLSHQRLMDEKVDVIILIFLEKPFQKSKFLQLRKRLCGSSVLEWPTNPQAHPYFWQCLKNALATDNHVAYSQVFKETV
Method: as §1

human TLR8 = target: T3, human TLR8 (Homo sapiens, UniProt Q9NR97); test: TLR7/8/9 Inhibition Reporter Assays (TLR8); details: HEK-Blue cells overexpressing human TLR8, SEAP reporter, stimulated with TLR8 ligand R848
T3 construct: host or cells: HEK-Blue cells (HEK293-derived reporter line)
T3 sequence (Q9NR97 27-1041): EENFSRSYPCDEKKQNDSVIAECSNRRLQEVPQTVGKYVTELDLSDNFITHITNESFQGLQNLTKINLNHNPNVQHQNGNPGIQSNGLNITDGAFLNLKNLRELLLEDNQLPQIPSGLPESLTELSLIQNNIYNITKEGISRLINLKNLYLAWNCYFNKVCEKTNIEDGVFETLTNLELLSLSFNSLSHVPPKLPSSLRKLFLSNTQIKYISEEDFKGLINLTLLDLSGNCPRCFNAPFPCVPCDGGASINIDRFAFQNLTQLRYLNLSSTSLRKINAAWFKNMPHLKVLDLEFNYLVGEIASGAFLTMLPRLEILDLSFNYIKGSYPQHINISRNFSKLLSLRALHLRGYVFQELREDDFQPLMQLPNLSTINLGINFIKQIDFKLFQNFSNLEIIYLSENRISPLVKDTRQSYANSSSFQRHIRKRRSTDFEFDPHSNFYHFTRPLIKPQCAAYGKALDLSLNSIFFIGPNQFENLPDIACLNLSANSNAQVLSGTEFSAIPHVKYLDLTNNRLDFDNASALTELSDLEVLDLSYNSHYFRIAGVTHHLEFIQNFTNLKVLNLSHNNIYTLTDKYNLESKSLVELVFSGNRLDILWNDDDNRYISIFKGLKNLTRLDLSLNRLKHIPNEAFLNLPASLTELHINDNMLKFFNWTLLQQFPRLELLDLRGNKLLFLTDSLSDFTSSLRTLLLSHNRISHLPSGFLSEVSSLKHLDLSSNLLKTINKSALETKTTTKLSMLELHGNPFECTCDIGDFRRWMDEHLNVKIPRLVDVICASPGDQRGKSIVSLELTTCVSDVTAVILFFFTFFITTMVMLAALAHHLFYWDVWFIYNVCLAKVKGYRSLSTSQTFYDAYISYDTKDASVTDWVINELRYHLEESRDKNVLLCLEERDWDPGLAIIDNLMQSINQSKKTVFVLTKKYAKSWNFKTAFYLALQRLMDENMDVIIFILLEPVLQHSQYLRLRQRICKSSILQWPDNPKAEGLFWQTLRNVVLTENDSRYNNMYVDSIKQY
Method: as §1

| SMILES | IC50 (human TLR9) [µM] | IC50 (human TLR7) [µM] | IC50 (human TLR8) [µM] |
| --- | --- | --- | --- |
| COc1ccc(-c2nc3c(C)nc(-c4ccc(N5CCN(C(C)C)CC5)cc4)cc3n2C)cc1OC [Example 1, 2-(3,4-dimethoxyphenyl)-6-(4-(4-isopropylpiperazin-1-yl)phenyl)-1,4-dimethyl-1H-imidazo[4,5-c]pyridine] | 0.22 | 1 | 7.4 |
| Cc1nc(-c2ccc(C3CCN(C(C)C)CC3)cc2)cc2c1nc(-c1ccc(S(C)(=O)=O)cc1)n2C [Example 2, 6-(4-(1-isopropylpiperidin-4-yl)phenyl)-1,4-dimethyl-2-(4-(methylsulfonyl)phenyl)-1H-imidazo[4,5-c]pyridine] | 0.3 | 12 | 36 |
| CC(C)N1CCC(N2CCC(c3cc4c(nc(-c5ccc(S(C)(=O)=O)cc5)n4C)c(C(F)(F)F)n3)CC2)CC1 [Example 3, 6-(1′-isopropyl-[1,4′-bipiperidin]-4-yl)-1-methyl-2-(4-(methylsulfonyl)phenyl)-4-(trifluoromethyl)-1H-imidazo[4,5-c]pyridine] | 0.11 | 3.1 | > 50 |
| Cc1nc(-c2ccc(N3CCC(N(C)C)CC3)cc2)cc2c1nc(-c1ccc(S(C)(=O)=O)cc1)n2C [Example 4, 1-(4-(1,4-dimethyl-2-(4-(methylsulfonyl)phenyl)-1H-imidazo[4,5-c]pyridin-6-yl)phenyl)-N,N-dimethylpiperidin-4-amine] | 0.12 | 1.3 | 9.2 |
| Cc1nc(-c2ccc(CN3CCN(C(C)C)CC3)cc2)cc2c1nc(-c1ccc(S(C)(=O)=O)cc1)n2C [Example 5, 6-(4-((4-isopropylpiperazin-1-yl)methyl)phenyl)-1,4-dimethyl-2-(4-(methylsulfonyl)phenyl)-1H-imidazo[4,5-c]pyridine] | 0.79 | 7.2 | 22 |
| Cc1nc(-c2ccc(N3CCN(C(C)C)CC3)cc2)cc2c1nc(-c1ccc(S(C)(=O)=O)cc1)n2C [Example 6, 6-(4-(4-isopropylpiperazin-1-yl)phenyl)-1,4-dimethyl-2-(4-(methylsulfonyl)phenyl)-1H-imidazo[4,5-c]pyridine] | 0.8 | 3.1 | 3 |
| Cc1nc(-c2ccc(N3CCN(CC(C)C)CC3)cc2)cc2c1nc(-c1ccc(S(C)(=O)=O)cc1)n2C [Example 7, 6-(4-(4-isobutylpiperazin-1-yl)phenyl)-1,4-dimethyl-2-(4-(methylsulfonyl)phenyl)-1H-imidazo[4,5-c]pyridine] | 0.24 | 7 | > 50 |
| Cc1nc(-c2ccc(N3CCN(CC(C)(C)O)CC3)cc2)cc2c1nc(-c1ccc(S(C)(=O)=O)cc1)n2C [Example 8, 1-(4-(4-(1,4-dimethyl-2-(4-(methylsulfonyl)phenyl)-1H-imidazo[4,5-c]pyridin-6-yl)phenyl)piperazin-1-yl)-2-methylpropan-2-ol] | 0.89 | 6.4 | 13 |
| COc1cc(-c2nc3c(C)nc(-c4ccc(N5CCN(C(C)C)CC5)cc4)cc3n2C)cn2ncnc12 [Example 9, 6-(6-(4-(4-isopropylpiperazin-1-yl)phenyl)-1,4-dimethyl-1H-imidazo[4,5-c]pyridin-2-yl)-8-methoxy-[1,2,4]triazolo[1,5-a]pyridine] | 0.22 | 0.47 | 9.1 |
| Cn1c(-c2ccc(S(C)(=O)=O)cc2)nc2cnc(C3CCN(C4CCN(C5CC5)CC4)CC3)cc21 [Example 32, 6-(1′-cyclopropyl-[1,4′-bipiperidin]-4-yl)-1-methyl-2-(4-(methylsulfonyl)phenyl)-1H-imidazo[4,5-c]pyridine] | 0.13 |  |  |
| Cc1nc(-c2ccc(C(=O)NC3CN(Cc4ccccc4)C3)cc2)cc2c1nc(-c1ccc(S(C)(=O)=O)cc1)n2C [Example 49, N-(1-benzylazetidin-3-yl)-4-(1,4-dimethyl-2-(4-(methylsulfonyl)phenyl)-1H-imidazo[4,5-c]pyridin-6-yl)benzamide] | 0.81 | 5.5 |  |
| Cc1ccccc1C(=O)N1CCC(NCc2ccc(-c3cc4c(nc(-c5ccc(S(C)(=O)=O)cc5)n4C)c(C)n3)cc2)CC1 [Example 51, (4-((4-(1,4-dimethyl-2-(4-(methylsulfonyl)phenyl)-1H-imidazo[4,5-c]pyridin-6-yl)benzyl)amino)piperidin-1-yl)(o-tolyl)methanone] | 2.3 | 6.6 |  |
